Eight compounds from ChEMBL document CHEMBL1131172 (J Med Chem, 1998) can be followed below.

The target in assay [1] is T1, Bifunctional dihydrofolate reductase-thymidylate synthase (Toxoplasma gondii, UniProt Q07422).
T1 sequence (Q07422 whole entry): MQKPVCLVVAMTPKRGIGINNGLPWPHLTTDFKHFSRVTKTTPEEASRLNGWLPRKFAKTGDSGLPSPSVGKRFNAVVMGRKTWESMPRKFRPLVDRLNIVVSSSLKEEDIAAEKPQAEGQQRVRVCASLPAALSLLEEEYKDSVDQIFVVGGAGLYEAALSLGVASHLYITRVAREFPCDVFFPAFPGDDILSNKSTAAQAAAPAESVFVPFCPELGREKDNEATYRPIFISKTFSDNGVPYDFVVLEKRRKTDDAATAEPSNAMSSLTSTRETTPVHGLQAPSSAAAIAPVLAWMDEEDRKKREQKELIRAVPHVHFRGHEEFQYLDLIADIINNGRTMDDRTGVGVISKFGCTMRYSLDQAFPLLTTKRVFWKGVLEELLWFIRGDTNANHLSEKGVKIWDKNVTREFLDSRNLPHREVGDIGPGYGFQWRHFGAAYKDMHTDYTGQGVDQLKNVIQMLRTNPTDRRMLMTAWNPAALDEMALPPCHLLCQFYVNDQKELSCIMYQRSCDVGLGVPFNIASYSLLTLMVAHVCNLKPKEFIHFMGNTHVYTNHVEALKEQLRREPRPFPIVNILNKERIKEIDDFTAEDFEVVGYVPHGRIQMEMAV
Description: Inhibitory activity against dihydrofolate reductase (DHFR) from Toxoplasma gondii

The target in assay [2] is T2, Dihydrofolate reductase (Rattus norvegicus, UniProt Q920D2).
T2 sequence (Q920D2 whole entry): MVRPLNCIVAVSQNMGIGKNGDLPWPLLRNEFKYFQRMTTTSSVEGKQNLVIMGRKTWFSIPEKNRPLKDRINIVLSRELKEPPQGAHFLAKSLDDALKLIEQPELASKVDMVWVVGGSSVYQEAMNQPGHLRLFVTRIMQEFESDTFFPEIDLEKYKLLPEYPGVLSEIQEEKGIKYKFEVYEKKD
Description: Inhibitory activity against dihydrofolate reductase (DHFR) from rat liver

The target in assay [3] is T3, Dihydrofolate reductase (Pneumocystis carinii, UniProt P16184).
T3 sequence (P16184 whole entry): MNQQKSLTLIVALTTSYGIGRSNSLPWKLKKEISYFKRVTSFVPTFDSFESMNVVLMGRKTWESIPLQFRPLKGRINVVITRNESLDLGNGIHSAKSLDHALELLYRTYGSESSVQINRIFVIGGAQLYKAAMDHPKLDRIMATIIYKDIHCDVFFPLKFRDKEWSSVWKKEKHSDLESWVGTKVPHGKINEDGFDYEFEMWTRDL
Description: Inhibitory activity against dihydrofolate reductase (DHFR) from Pneumocystis carinii

Structures are written as SMILES.

Regarding `COc1ccc(S(=O)(=O)c2ccc3nc(N)nc(N)c3n2)cc1`, the IC50 in assay [1] was 1000 nM; at Dihydrofolate reductase [2] it was 2000 nM.

In the case of `COc1cc(Nc2ccc3nc(N)nc(N)c3n2)cc(OC)c1OC`, the IC50 was 25900 nM against Dihydrofolate reductase [3], 2400 nM in assay [1] and 3200 nM against Dihydrofolate reductase [2].

Take `COc1ccc(Sc2ccc3nc(N)nc(N)c3n2)cc1OC`: the results for the IC50 (against Dihydrofolate reductase [3]; in assay [1]; at Dihydrofolate reductase [2]) were 86 nM, 19 nM and 18 nM, respectively.

Turning to `COc1cc(CNc2ccc3nc(N)nc(N)c3n2)cc(OC)c1OC`, the IC50 in assay [1] was 490 nM; against Dihydrofolate reductase [2], 1400 nM.

Take `Nc1nc(N)c2nc(Nc3ccc4ccccc4c3)ccc2n1`: the results for the IC50 (against Dihydrofolate reductase [3]; in assay [1]; against Dihydrofolate reductase [2]) were 15000 nM, 1100 nM and 2000 nM, respectively.

On to `COc1ccccc1S(=O)(=O)c1ccc2nc(N)nc(N)c2n1`, for which the IC50 against Dihydrofolate reductase [3] was 3200 nM; in assay [1], 210 nM; against Dihydrofolate reductase [2], 1400 nM.

On to `COc1ccccc1Sc1ccc2nc(N)nc(N)c2n1`, for which the IC50 against Dihydrofolate reductase [3] is 2200 nM; in assay [1], 58 nM; at Dihydrofolate reductase [2], 230 nM.

For the compound `COc1ccc(S(=O)(=O)c2ccc3nc(N)nc(N)c3n2)cc1OC`, the IC50 worked out at 2700 nM at Dihydrofolate reductase [3], 940 nM in assay [1] and 880 nM at Dihydrofolate reductase [2].
